Molecular target: PI3K-alpha (Homo sapiens (Human), UniProt P42336)
Experiment: HTRF PI3K biochemical assay, alpha isoform
Conditions: ratio PI3K-alpha IC50 value/PI3K-delta IC50 value

PI3K-alpha, sequence (P42336 whole entry, looked up, canonical isoform): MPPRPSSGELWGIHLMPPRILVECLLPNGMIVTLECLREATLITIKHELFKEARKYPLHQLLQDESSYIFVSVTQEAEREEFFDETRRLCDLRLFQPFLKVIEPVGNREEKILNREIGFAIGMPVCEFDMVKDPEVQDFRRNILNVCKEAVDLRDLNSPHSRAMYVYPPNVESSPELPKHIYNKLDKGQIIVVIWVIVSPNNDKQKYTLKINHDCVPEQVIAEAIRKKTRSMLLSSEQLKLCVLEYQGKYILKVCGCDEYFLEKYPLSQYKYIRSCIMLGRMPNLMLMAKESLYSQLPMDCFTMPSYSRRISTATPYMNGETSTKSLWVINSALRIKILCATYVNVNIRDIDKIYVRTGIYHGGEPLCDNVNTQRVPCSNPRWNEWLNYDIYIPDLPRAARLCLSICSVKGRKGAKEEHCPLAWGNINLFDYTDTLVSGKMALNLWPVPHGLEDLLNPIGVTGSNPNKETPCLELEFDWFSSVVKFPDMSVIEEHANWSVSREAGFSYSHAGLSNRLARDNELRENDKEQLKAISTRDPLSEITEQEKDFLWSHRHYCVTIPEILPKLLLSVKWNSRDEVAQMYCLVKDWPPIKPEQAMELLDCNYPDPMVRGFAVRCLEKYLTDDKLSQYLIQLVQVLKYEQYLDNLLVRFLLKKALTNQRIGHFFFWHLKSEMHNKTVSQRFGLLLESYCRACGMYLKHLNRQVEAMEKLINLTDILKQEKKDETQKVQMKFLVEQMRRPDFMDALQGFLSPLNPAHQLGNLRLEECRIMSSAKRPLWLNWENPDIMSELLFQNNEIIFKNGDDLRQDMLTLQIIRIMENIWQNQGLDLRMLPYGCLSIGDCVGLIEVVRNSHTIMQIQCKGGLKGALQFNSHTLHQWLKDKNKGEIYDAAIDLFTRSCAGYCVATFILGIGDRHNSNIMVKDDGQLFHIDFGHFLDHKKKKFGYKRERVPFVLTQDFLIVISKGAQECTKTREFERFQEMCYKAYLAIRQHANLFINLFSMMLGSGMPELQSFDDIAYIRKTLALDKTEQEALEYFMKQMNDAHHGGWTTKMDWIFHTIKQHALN
PI3K-alpha, sequence (P27986 whole entry partner, looked up, canonical isoform): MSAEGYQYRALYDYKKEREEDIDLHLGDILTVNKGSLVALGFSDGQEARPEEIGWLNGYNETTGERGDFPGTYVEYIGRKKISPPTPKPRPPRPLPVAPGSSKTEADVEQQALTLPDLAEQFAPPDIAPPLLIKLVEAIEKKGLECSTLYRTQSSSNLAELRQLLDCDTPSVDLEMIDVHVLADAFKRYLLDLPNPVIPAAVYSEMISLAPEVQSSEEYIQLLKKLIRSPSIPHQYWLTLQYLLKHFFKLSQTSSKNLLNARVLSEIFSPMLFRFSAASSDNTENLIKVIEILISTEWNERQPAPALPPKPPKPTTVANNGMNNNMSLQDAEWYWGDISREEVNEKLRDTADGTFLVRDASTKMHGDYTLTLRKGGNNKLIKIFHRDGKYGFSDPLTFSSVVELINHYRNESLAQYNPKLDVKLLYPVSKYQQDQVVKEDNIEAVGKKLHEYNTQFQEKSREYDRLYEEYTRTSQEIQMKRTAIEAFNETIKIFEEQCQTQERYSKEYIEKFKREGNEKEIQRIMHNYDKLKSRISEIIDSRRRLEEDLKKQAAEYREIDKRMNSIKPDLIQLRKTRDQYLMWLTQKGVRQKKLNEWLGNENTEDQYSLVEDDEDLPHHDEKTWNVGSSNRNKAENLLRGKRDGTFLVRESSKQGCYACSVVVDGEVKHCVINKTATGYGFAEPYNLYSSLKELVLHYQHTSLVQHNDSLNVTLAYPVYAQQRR

**Q.** `CCn1ncc(-c2nc3c(O[C@H]4CCN(c5nncc6ccccc56)C4)ncnc3n2C)c1C` [Compound 7-8, 1-[(3S)-3-{[8-(1-ethyl-5-methyl-1H-pyrazol-4-yl)-9-methyl-9H-purin-6-yl]oxy}pyrrolidin-1-yl]phthalazine] was tested. Which “Relative Selectivity versus PI3Kalpha” value did it give?
**A.** >10

**Q.** With `CCn1ncc(-c2nc3c(O[C@H]4CCN(c5cc(-n6cc(C)cn6)ncn5)C4)ncnc3n2C)c1C` [Compound 7-9, 8-(1-ethyl-5-methyl-1H-pyrazol-4-yl)-9-methyl-6-({(3S)-1-[6-(4-methyl-1H-pyrazol-1-yl)pyrimidin-4-yl]pyrrolidin-3-yl}oxy)-9H-purine] as the compound, how does the “Relative Selectivity versus PI3Kalpha” value read?
**A.** >10

**Q.** Which “Relative Selectivity versus PI3Kalpha” value does the source give for `CCn1ncc(-c2nc3c(O[C@H]4CCN(c5nccc(-c6ccco6)n5)C4)ncnc3n2C)c1C` [Compound 7-10, 8-(1-ethyl-5-methyl-1H-pyrazol-4-yl)-6-{[(3S)-1-(4-furan-2-ylpyrimidin-2-yl)pyrrolidin-3-yl]oxy}-9-methyl-9H-purine] here?
**A.** >10

**Q.** `CCn1ncc(-c2nc3c(O[C@H]4CCN(c5cncc(C)n5)C4)ncnc3n2C)c1C` [Compound 7-11, 8-(1-ethyl-5-methyl-1H-pyrazol-4-yl)-9-methyl-6-{[(3S)-1-(6-methylpyrazin-2-yl)pyrrolidin-3-yl]oxy}-9H-purine] was tested. Which “Relative Selectivity versus PI3Kalpha” value did it give?
**A.** >10

**Q.** For `CCn1ncc(-c2nc3c(O[C@H]4CCN(c5ncnc6sc(C)c(C)c56)C4)ncnc3n2C)c1C` [Compound 7-12, 6-{[(3S)-1-(5,6-dimethylthieno[2,3-d]pyrimidin-4-yl)pyrrolidin-3-yl]oxy}-8-(1-ethyl-5-methyl-1H-pyrazol-4-yl)-9-methyl-9H-purine], which “Relative Selectivity versus PI3Kalpha” value is on record?
**A.** >10

**Q.** How did the “Relative Selectivity versus PI3Kalpha” value turn out when `CCn1ncc(-c2nc3c(O[C@H]4CCN(c5ncnc6sccc56)C4)ncnc3n2C)c1C` [Compound 7-13, 8-(1-ethyl-5-methyl-1H-pyrazol-4-yl)-9-methyl-6-{[(3S)-1-thieno[2,3-d]pyrimidin-4-ylpyrrolidin-3-yl]oxy}-9H-purine] was run?
**A.** >10

**Q.** How did the “Relative Selectivity versus PI3Kalpha” value turn out when `CCn1ncc(-c2nc3c(O[C@H]4CCN(c5ncnc6c5cnn6C)C4)ncnc3n2C)c1C` [Compound 7-14, 4-[(3S)-3-{[8-(1-ethyl-5-methyl-1H-pyrazol-4-yl)-9-methyl-9H-purin-6-yl]oxy}pyrrolidin-1-yl]-1-methyl-1H-pyrazolo[3,4-d]pyrimidine] was run?
**A.** >10

**Q.** With `CCn1ncc(-c2nc3c(O[C@H]4CCN(c5cc(-n6cccn6)ncn5)C4)ncnc3n2C)c1C` [Compound 7-15, 8-(1-ethyl-5-methyl-1H-pyrazol-4-yl)-9-methyl-6-({(3S)-1-[6-(1H-pyrazol-1-yl)pyrimidin-4-yl]pyrrolidin-3-yl}oxy)-9H-purine] as the compound, how does the “Relative Selectivity versus PI3Kalpha” value read?
**A.** >10

**Q.** How did the “Relative Selectivity versus PI3Kalpha” value turn out when `CCn1c(-c2cnc(C)nc2)nc2c(O[C@H]3CCN(c4ccccc4C)C3)ncnc21` [Compound 7-16, 9-ethyl-6-{[(3S)-1-(2-methylphenyl)pyrrolidin-3-yl]oxy}-8-(2-methylpyrimidin-5-yl)-9H-purine] was run?
**A.** >10

**Q.** How did the “Relative Selectivity versus PI3Kalpha” value turn out when `CCn1c(-c2cnc(C)nc2)nc2c(O[C@H]3CCN(c4ccccn4)C3)ncnc21` [Compound 7-17, 9-ethyl-8-(2-methylpyrimidin-5-yl)-6-{[(3S)-1-pyridin-2-ylpyrrolidin-3-yl]oxy}-9H-purine] was run?
**A.** >10

**Q.** With `CCn1c(-c2cnc(C)nc2)nc2c(O[C@H]3CCN(c4cc(C)ccn4)C3)ncnc21` [Compound 7-18, 9-ethyl-6-{[(3S)-1-(4-methylpyridin-2-yl)pyrrolidin-3-yl]oxy}-8-(2-methylpyrimidin-5-yl)-9H-purine] as the compound, how does the “Relative Selectivity versus PI3Kalpha” value read?
**A.** >10

**Q.** Which “Relative Selectivity versus PI3Kalpha” value does the source give for `CCn1c(-c2cnc(C)nc2)nc2c(O[C@H]3CCN(c4ccccc4)C3)ncnc21` [Compound 7-19, 9-ethyl-8-(2-methylpyrimidin-5-yl)-6-{[(3S)-1-phenylpyrrolidin-3-yl]oxy}-9H-purine] here?
**A.** >10

**Q.** With `CCn1c(-c2cnc(C)nc2)nc2c(O[C@H]3CCN(c4ccc(F)cc4)C3)ncnc21` [Compound 7-20, 9-ethyl-6-{[(3S)-1-(4-fluorophenyl)pyrrolidin-3-yl]oxy}-8-(2-methylpyrimidin-5-yl)-9H-purine] as the compound, how does the “Relative Selectivity versus PI3Kalpha” value read?
**A.** >10

Reference: US9730940B2, “Purine inhibitors of human phosphatidylinositol 3-kinase delta” (priority 2012, dated 2017)
